Data as given in patent US20240376097A1, “BCL-2 Inhibitor” (BeiGene Ltd., priority 2020, published 2024).

Columns and labels:
[1] = molecular target: recombinant human Bcl-2-G101V protein (Homo sapiens (Human), UniProt P10415, G101V); test: Bcl-2-G101V TR-FRET Assay; format: binding; settings: Bcl-2 G101V mutant, TR-FRET; read-out: Biochemical assay (IC50, nM) Bcl-2 G101V
Procedure, shortened: (§1)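 IC50 values derive from four-parameter logistic fitting of percent inhibition data. That inhibition of ligand binding to Bcl-2-G101V is computed from the 490 nm/520 nm TR-FRET ratio under 337 nm excitation, over a rising compound concentration series.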

[2] = test system: recombinant human Bcl-2-G101V protein; test: Bcl-2-G101V TR-FRET Assay; format: binding; settings: for Ratio of Bcl-2 G101V/WT: ratio of biochemical IC50 Bcl-2 G101V / Bcl-2 WT
Procedure, shortened: as §1

[3] = test system: RS4;11 (BCL-2 dependent acute lymphoblastic leukemia cell line); test: RS4;11 Cell Proliferation Assay; format: cell-based; settings: Homo sapiens, RS4;11 cells, read-out: Cellular proliferation assay (IC50, nM) RS4
Procedure, shortened: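 Viability measured via CellTiter-Glo luminescence after a 48 h, 37 °C exposure to compounds (10 points, highest 1 μM). Seeding was 50,000 RS4;11 cells per well in 10% FBS RPMI-1640; IC50 given as mean.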

[4] = Metabolic Stability Study, liver microsome incubation (human); format: in vitro ADME; settings: human liver microsomes 0.5 mg/mL, 1 μM compound, NADPH; for microsomal CLint at 1 μM: read-out: CLint (μL × min^−1 × mg^−1) Human; for half-life at 1 μM: NA^# = very stable, beyond the detection limits, read-out: T1/2 (min) Human
Procedure, shortened: (§2)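 Test compounds (1 μM) incubated at 37° C with 0.5 mg/mL liver microsomes plus NADPH regenerating system; samples quenched at 0, 30 and 60 min. Parent loss measured by LC-MS/MS, giving CLint and T1/2, with CLint normalised to microsomal protein concentration.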

[5] = Metabolic Stability Study, liver microsome incubation (mouse); format: in vitro ADME; settings: mouse liver microsomes 0.5 mg/mL, 1 μM compound, NADPH; for half-life at 1 μM: NA^# = very stable, beyond the detection limits, read-out: T1/2 (min) mouse; for microsomal CLint at 1 μM: read-out: CLint (μL × min^−1 × mg^−1) mouse
Procedure, shortened: as §2

| SMILES | IC50 [1] [nM] | ratio of IC50 of Bcl-2 G101V/Bcl-2 wt, compared with Example F132b in WO2019210828 and ABT-199 (venetoclax) ([2]; comparison in words) | Ratio of Bcl-2 G101V/WT [2] | IC50 [3] [nM] | microsomal CLint at 1 μM [4] [µL/min/mg] | half-life at 1 μM [5] [min] | microsomal CLint at 1 μM [5] [µL/min/mg] | half-life at 1 μM [4] [min] |
| --- | --- | --- | --- | --- | --- | --- | --- | --- |
| COc1ccc(CN2CCN(C3CC4(CCN(c5ccc(C(=O)NS(=O)(=O)c6ccc(NC[C@H]7CC[C@](C)(O)CC7)c([N+](=O)[O-])c6)c(Oc6cnc7[nH]cc(F)c7c6)c5)CC4)C3)[C@H](c3ccccc3C(C)C)C2)cc1OC [Example 127, 4-(2-((R)-4-(3,4-dimethoxybenzyl)-2-(2-isopropylphenyl)piperazin-1-yl)-7-azaspiro[3.5]nonan-7-yl)-2-((3-fluoro-1H-pyrrolo[2,3-b]pyridin-5-yl)oxy)-N-((4-((((1r,4r)-4-hydroxy-4-methylcyclohexyl)methyl)amino)-3-nitrophenyl)sulfonyl)benzamide] | 0.13 | much lower | 1.8 | 0.167 | < 1 | 182 | 7.63 | – |
| COc1cc(CN2CCN(C3CC4(CCN(c5ccc(C(=O)NS(=O)(=O)c6ccc(NC[C@H]7CC[C@](C)(O)CC7)c([N+](=O)[O-])c6)c(Oc6cnc7[nH]cc(F)c7c6)c5)CC4)C3)[C@H](c3ccccc3C(C)C)C2)cc2ccoc12 [Example 281, 2-((3-fluoro-1H-pyrrolo[2,3-b]pyridin-5-yl)oxy)-N-((4-((((1r,4r)-4-hydroxy-4-methylcyclohexyl)methyl)amino)-3-nitrophenyl)sulfonyl)-4-(2-((R)-2-(2-isopropylphenyl)-4-((7-methoxybenzofuran-5-yl)methyl)piperazin-1-yl)-7-azaspiro[3.5]nonan-7-yl)benzamide] | 0.99 | – | 2.3 | 0.13 | 1.6 | 564 | 2.5 | 870 |
| CC(C)c1ccccc1C1CN(Cc2cc(F)cc(F)c2)CCN1C1CC2(CCN(c3ccc(C(=O)NS(=O)(=O)c4ccc(NC[C@H]5CC[C@](C)(O)CC5)c([N+](=O)[O-])c4)c(Oc4cnc5[nH]ccc5c4)c3)CC2)C1 (some centres unmarked) [Example 51, 2-((1H-pyrrolo[2,3-b]pyridin-5-yl)oxy)-4-(2-(4-(3,5-difluorobenzyl)-2-(2-isopropylphenyl)piperazin-1-yl)-7-azaspiro[3.5]nonan-7-yl)-N-((4-((((1r,4r)-4-hydroxy-4-methylcyclohexyl)methyl)amino)-3-nitrophenyl)sulfonyl)benzamide] | 1.6 | – | 3.8 | 0.49 | 5.9 | 306 | 4.5 | 234 |
| COc1cc(CN2CCN(C3CC4(CCN(c5ccc(C(=O)NS(=O)(=O)c6ccc(NC[C@H]7CC[C@](C)(O)CC7)c([N+](=O)[O-])c6)c(Oc6cnc7[nH]cc(F)c7c6)c5)CC4)C3)[C@H](c3ccccc3C(C)C)C2)cc2c1OCC2(C)C [Example 285, 2-((3-fluoro-1H-pyrrolo[2,3-b]pyridin-5-yl)oxy)-N-((4-((((1r,4r)-4-hydroxy-4-methylcyclohexyl)methyl)amino)-3-nitrophenyl)sulfonyl)-4-(2-((R)-2-(2-isopropylphenyl)-4-((7-methoxy-3,3-dimethyl-2,3-dihydrobenzofuran-5-yl)methyl)piperazin-1-yl)-7-azaspiro [3.5]nonan-7-yl)benzamide] | 0.87 | – | 3.4 | 0.18 | 4.6 | 177 | 7.8 | 299 |
| CC(C)c1ccccc1C1CN(Cc2ccc(F)cc2)CCN1C1CC2(CCN(c3ccc(C(=O)NS(=O)(=O)c4ccc(NC[C@H]5CC[C@](C)(O)CC5)c([N+](=O)[O-])c4)c(Oc4cnc5[nH]ccc5c4)c3)CC2)C1 (some centres unmarked) [Example 28, 2-((1H-pyrrolo[2,3-b]pyridin-5-yl)oxy)-4-(2-(4-(4-fluorobenzyl)-2-(2-isopropylphenyl)piperazin-1-yl)-7-azaspiro[3.5]nonan-7-yl)-N-((4-((((1r,4r)-4-hydroxy-4-methylcyclohexyl)methyl)amino)-3-nitrophenyl)sulfonyl)benzamide] | 0.82 | – | 3.6 | 0.39 | 10.3 | 200 | 6.9 | 135 |
| COc1cc(CN2CCN(C3CC4(C3)CN(c3ccc(C(=O)NS(=O)(=O)c5ccc(NC[C@H]6CC[C@](C)(O)CC6)c([N+](=O)[O-])c5)c(Oc5cnc6[nH]cc(F)c6c5)c3)C4)[C@H](c3ccccc3C(C)C)C2)ccc1OC1CC1 [Example 321, 4-(6-((R)-4-(4-cyclopropoxy-3-methoxybenzyl)-2-(2-isopropylphenyl)piperazin-1-yl)-2-azaspiro[3.3]heptan-2-yl)-2-((3-fluoro-1H-pyrolo[2,3-b]pyridin-5-yl)oxy)-N-((4-((((1r,4r)-4-hydroxy-4-methylcyclohexy)methyl)amino)-3-nitrophenyl)sulfonyl)benzamide] | 0.35 | – | 2 | 0.22 | 1.4 | 628 | 2.2 | 1020 |
| CC(C)c1ccccc1C1CN(Cc2ccc(F)c(F)c2)CCN1C1CC2(CCN(c3ccc(C(=O)NS(=O)(=O)c4ccc(NC[C@H]5CC[C@](C)(O)CC5)c([N+](=O)[O-])c4)c(Oc4cnc5[nH]ccc5c4)c3)CC2)C1 (some centres unmarked) [Example 52, 2-((1H-pyrrolo[2,3-b]pyridin-5-yl)oxy)-4-(2-(4-(3,4-difluorobenzyl)-2-(2-isopropylphenyl)piperazin-1-yl)-7-azaspiro[3.5]nonan-7-yl)-N-((4-((((1r,4r)-4-hydroxy-4-methylcyclohexyl)methyl)amino)-3-nitrophenyl)sulfonyl)benzamide] | 0.73 | – | 3.0 | 0.36 | 9.5 | – | < 1 | 145 |
| COc1ccc(CN2CCN(C3CC4(CCN(c5ccc(C(=O)NS(=O)(=O)c6ccc(NC[C@H]7CC[C@](C)(O)CC7)c([N+](=O)[O-])c6)c(Oc6cnc7[nH]ccc7c6)c5)CC4)C3)C(c3ccccc3C(C)C)C2)cn1 (some centres unmarked) [Example 72, 2-((1H-pyrrolo[2,3-b]pyridin-5-yl)oxy)-N-((4-((((1r,4r)-4-hydroxy-4-methylcyclohexyl)methyl)amino)-3-nitrophenyl)sulfonyl)-4-(2-(2-(2-isopropylphenyl)-4-((6-methoxypyridin-3-yl)methyl)piperazin-1-yl)-7-azaspiro[3.5]nonan-7-yl)benzamide] | 0.2 | – | 4 | 0.45 | 2.8 | 159 | 8.7 | 491 |
| COc1ccc(CN2CCN(C3CC4(CCN(c5ccc(C(=O)NS(=O)(=O)c6ccc(NC[C@H]7CC[C@](C)(O)CC7)c([N+](=O)[O-])c6)c(Oc6cnc7[nH]ccc7c6)c5)CC4)C3)[C@H](c3ccccc3C(C)C)C2)cc1OC [Example 81a, 2-((1H-pyrrolo[2,3-b]pyridin-5-yl)oxy)-4-(2-((R)-4-(3,4-dimethoxybenzyl)-2-(2-isopropylphenyl)piperazin-1-yl)-7-azaspiro[3.5]nonan-7-yl)-N-((4-((((1r,4r)-4-hydroxy-4-methylcyclohexyl)methyl)amino)-3-nitrophenyl)sulfonyl)benzamide] | 0.075 | – | 2.0 | 0.146 | < 1 | 219 | 6.32 | – |
| COc1cc(CN2CCN(C3CC4(C3)CN(c3ccc(C(=O)NS(=O)(=O)c5ccc(NC[C@H]6CC[C@](C)(O)CC6)c([N+](=O)[O-])c5)c(Oc5cnc6[nH]cc(F)c6c5)c3)C4)[C@H](c3ccccc3C(C)C)C2)cc(F)c1OC [Example 230, 2-((3-fluoro-1H-pyrrolo[2,3-b]pyridin-5-yl)oxy)-4-(6-((R)-4-(3-fluoro-4,5-dimethoxybenzyl)-2-(2-isopropylphenyl)piperazin-1-yl)-2-azaspiro[3.3]heptan-2-yl)-N-((4-((((1r,4r)-4-hydroxy-4-methylcyclohexyl)methyl)amino)-3-nitrophenyl)sulfonyl)benzamide] | 0.52 | – | 2.8 | 0.1 | 3.7 | 183 | 7.6 | 373 |
